Experimental data published in patent publication US11739053B2, “P62-ZZ chemical inhibitor” (ID4PHARMA, LLC, priority 2011, dated 2023).
Values after ≈ are worked out from the molar mass of the structure shown.

Columns and labels:
Format in all cases: cell-based
[1] = system: CD11b(+) mononuclear cells from wild type mice; test: OCL formation by wild type mouse osteoclast precursors, TRACP stain; conditions: 7 days, 50 ng/ml TNFα
Description: (§1) FIG. 7A-C: 7A. CFU-Blast colony formation. Human CD34(+) cells were cultured with p62-ZZ inhibitor #3 and 1 ng/ml of rhIL-3 IL-6 and SCF for 7 days. Data are shown as the mean±SD (n=5). FIG. 7B. Human OCL formation. Non-adherent mononuclear cells (2.5×10^7 cells/10-cm dish) derived from human bone marrow samples were cultured in α-MEM containing 10% FCS, 100 pg/ml recombinant human GM-CSF(R & D) for 7 days. Then the cells were collected and plated (cell density is 1.0×10^6 cells/nil) in α-MEM containing 20% horse serum with 1 ng/ml TNFα. Half-media changes were performed twice a week containing various concentrations of the p62-ZZ inhibitor #3. The cultures were incubated for a total of 2 weeks at 37° C. with 5% CO2 and 95% humidity. The osteoclasts were stained with the 23C6 antibody which recognizes CD51/61. Data are shown as the mean±SD (n=5). *P<0.01 compared to vehicle treated cultures. 7C. OCL formation by wild type and p62−/− mouse osteoclast precursors. Data is shown as the mean±SD (n=4). *: P<0.01 compared to no-inhibitor cultures. The effects of p62-ZZ inhibitor #3 on osteoclast formation by p62^−/− OCL precursors were examined to determine the specificity of the effects of the p62-ZZ inhibitor #3 on osteoclast precursors. CDIIb(+) mononuclear cells from wild type and p62″/_mice were used. […] OCLs were scored as TRAP positive cells containing 3 or more nuclei. […]

[2] = system: Human CD34(+) mononuclear cells; test: CFU-Blast colony formation; conditions: all concentrations, 7 days
Description: FIG. 7A-C: 7A. CFU-Blast colony formation. Human CD34(+) cells were cultured with p62-ZZ inhibitor #3 and 1 ng/ml of rhIL-3 IL-6 and SCF for 7 days. Data are shown as the mean±SD (n=5). FIG. 7B. Human OCL formation. Non-adherent mononuclear cells (2.5×10^7 cells/10-cm dish) derived from human bone marrow samples were cultured in α-MEM containing 10% FCS, 100 pg/ml recombinant human GM-CSF(R & D) for 7 days. Then the cells were collected and plated (cell density is 1.0×10^6 cells/nil) in α-MEM containing 20% horse serum with 1 ng/ml TNFα. Half-media changes were performed twice a week containing various concentrations of the p62-ZZ inhibitor #3. The cultures were incubated for a total of 2 weeks at 37° C. with 5% CO2 and 95% humidity. The osteoclasts were stained with the 23C6 antibody which recognizes CD51/61. Data are shown as the mean±SD (n=5). *P<0.01 compared to vehicle treated cultures. 7C. OCL formation by wild type and p62−/− mouse osteoclast precursors. Data is shown as the mean±SD (n=4). *: P<0.01 compared to no-inhibitor cultures. Whether p62-ZZ inhibitor #3 affects hematopoesis since osteoclast precursors are derived from hematopoietic cells was examined. […] Colonies were scored after 7 days of culture using an inverted microscope.

[3] = system: Primary human stromal cells; test: Stromal cell growth, MTT assay
Description: FIG. 4A-C: 4A. Effect of p62-ZZ inhibitor #3 on myeloma cell growth. MM cell growth was assayed by MTT assay. Data are shown as mean±SD (n=5). FIG. 4B. MTT assay of CD138(+) primary myeloma cells. Data are shown as mean±SD (n=5). FIG. 4C. Effects of p62-ZZ inhibitors on human stromal cell growth. Primary human stromal cells (5×10^3/well) were cultured with 10 μM of p62-ZZ inhibitor (#1-6) containing 10% FCS in IMDM for 48 hours. Stromal cells growth was assayed by MTT assay. Data are shown as the mean±SD (n=5). *P<0.01 compared to vehicle treated culture. MM1.S (3×10^5 cells/well) or CD138 (+) (1×10^5 cells/well) primary myeloma cells were incubated in 96-well plates in the presence of RPMI-1640-10% FCS and various concentrations of p62-ZZ inhibitor #3 at 37° C. 5% CO2 for 48 h to determine the IC50 for inhibiting myeloma cell proliferation.

[4] = system: p62 knockout OCL precursors; test: OCL formation by p62-/- mouse osteoclast precursors, TRACP stain; conditions: 7 days, 50 ng/ml TNFα
Description: as §1

OCCNCc1ccc(OCc2ccccc2)c(OCc2ccccc2)c1 [Compound 3, 2-[[3,4-bis(phenylmethoxy)phenyl]methylamino]ethanol]
IC50 ([1]; Mus musculus, Osteoclast, 168 h, read-out: IC50 concentration for OCL formation, wild type cells): 1 ng/mL (≈ 2.75 nM) | OCL formation in wild type mice cell cultures ([1]; various concentrations): blocked OCL formation dose dependently | CFU-Blast colony formation [2]: do not inhibit | toxicity to regular stromal cells [3]: low toxicity | proliferation of stromal cells by MTT assay ([3]; 10 μM, 48 hours): did not change proliferation | OCL formation by p62 knockout OCL precursors [4]: did not block
